Molecules are shown by their SMILES.

In assay [1] the test system is myrosinase. The experiment in a line: Conversion of glucoraphanin to sulforaphane in simulated intestinal fluid (Example 5). The conditions noted are these: 38° C., ascorbic acid 0.25 to 1.00 mmol/Liter, 2 hours, FIG. 4. The class given is biochemical, broccoli. On the procedure:
Simulated Intestinal Fluid (SIF) powder, a commercially supplied concentrate closely approximating the human intestinal content in terms of composition, pH and ionic strength, was used. The experiment utilized a USP Dissolution Apparatus 2 (paddles), where into six dissolution vessels 500 mL of Simulated Intestinal Fluid was dispensed, along with 150 mg of freeze-dried broccoli sprout powder as a source of myrosinase. […] Aliquots were withdrawn every 15 minutes, and assayed for sulforaphane.

In assay [2] the test system is myrosinase. The experiment in a line: Equimolar conversion of glucoraphanin to sulforaphane by myrosinase, HPLC (Example 4). The class given is biochemical, broccoli. On the procedure: A two-part experiment was conducted to further elucidate the role of ascorbic acid in modulating myrosinase activity. […] A control sample contained no ascorbic acid, and the enzymatic conversion proceeded unassisted by a co-factor. PART 1. […] PART 2. While keeping the amount of broccoli seed extract fixed at 250 mg, the concentration of ascorbic acid was varied from 0.4 mmol/Liter to 3.8 mmol/Liter.

The next assay deals with heme oxygenase-1 (HO-1). Conditions: oral administration; mammary epithelium; Sprague-Dawley rats; cited from earlier work.
Assay [3] relates to NAD(P)H:quinine oxidoreductase (NQO1). Conditions: oral administration; mammary epithelium; Sprague-Dawley rats; cited from earlier work.
For the next assay, the system named is HepG2 cells. The experiment in a line: Glutathione levels in HepG2 cell lysates, o-phthalaldehyde fluorescence (Example 6). Format: cell-based, human. Conditions: alone or combined. The protocol: The following study was conducted to determine the effect of the combination of sulforaphane and silibinin on glutathione levels. Glutathione plays an important role in the body, as it can serve as an antioxidant, detoxifier, and immunity enhancer. Decreased levels of glutathione can cause a patient to be susceptible to oxidative stress, illness, and cancer. Therefore, an increase in glutathione levels is a beneficial effect.
In the study, the human liver cancer cell line, HepG2 cells were treated with DMSO (vehicle control), sulforaphane (SFN), silibinin (Silib), or the combination of sulforaphane and silibinin, for 24 hours. Cell lysates were collected and glutathione levels were measured using o-phthalaldehyde (OPT) as a fluorescent reagent. FIG. 5 and FIG. 6 show the results of the study.
In Part 1 of the study, the effect of 0.5 μM SFN was compared to various concentrations of silibinin and to the combination of 0.5 μM SFN and silibinin at various concentrations. […] An increase in glutathione levels is a beneficial effect. The results are depicted in FIG. 5.
In Part 2 of the study, the effect of 2 μM SFN was compared to various concentrations of silibinin and to the combination of 2 μM SFN and silibinin at various concentrations. […] An increase in glutathione levels is a beneficial effect to detoxify cells. The results are depicted in FIG. 6.

The subject of the next assay is mammary tumors. The conditions noted are these: Sprague-Dawley rats; cited from earlier work.

Take `O=C1O[C@H]([C@@H](O)CO)C(O)=C1O` [Ascorbic Acid, ascorbic acid]: the “Yield of sulforaphane versus ascorbic acid concentration” value in the assay with myrosinase [1] was “direct correlation between larger yield of sulforaphane and higher concentrations of ascorbic acid”. Moreover, the “Modulatory effect of increasing ascorbic acid concentration on myrosinase activity” value with myrosinase [2] (Part 2: 250 mg broccoli seed extract, ascorbic acid 0.4 to 3.8 mmol/Liter) is on record as “linear, increase in myrosinase-promoted conversion of glucoraphanin to sulforaphane is observed to about 2 mmol/L”.
Consider `C[S+]([O-])CCCC/C(=N\OS(=O)(=O)O)S[C@@H]1O[C@H](CO)[C@@H](O)[C@H](O)[C@H]1O` (stereo partly drawn) [glucoraphanin, 1-S-[(1E)-5-(methylsulfinyl)-N-(sulfonatooxy)pentanimidoyl]-1-thio-β-D-glucopyranose], for which, in the assay with heme oxygenase-1 (HO-1), the “Elevated immunostaining of HO-1 enzyme” value was 4 fold. For the same molecule, in assay [3], the “Increase in NQO1 enzymatic activity” value is on record as 3 fold. Further, the “Stoichiometry of enzymatic conversion of glucoraphanin to sulforaphane” value with myrosinase [2] (control sample without ascorbic acid) is listed as “equimolar conversion of glucoraphanin to sulforaphane”.
As for `C[S+]([O-])CCCCN=C=S` (stereo not drawn) [sulforaphane, 1-isothiocyanato-4-methylsulfinylbutane], the “Glutathione levels compared to DMSO (vehicle) control” value in the assay with HepG2 cells (Part 1, 24 hours: 0.5 μM SFN, 100, 200, 300 μM Silib, FIG. 5) is “remained the same”. For the same molecule, the “Glutathione levels compared to the control” value with HepG2 cells (Part 2, 24 hours: 2 μM SFN, 100, 300 μM Silib, FIG. 6) is “remained the same”. Moreover, the “Elevated immunostaining of HO-1 enzyme” value with heme oxygenase-1 (HO-1) is listed as 4 fold. Also, the “Formation of mammary tumors” value in the assay with mammary tumors is recorded as “effective in blocking the formation of mammary tumors”.

Values taken from US20150118306A1, “COMPOSITIONS COMPRISING SULFORAPHANE OR A SULFORAPHANE PRECURSOR AND A MILK THISTLE EXTRACT OR POWDER” (Nutramax Laboratories, Inc., priority 2012, published 2015).
